pEC50: −log10 of the molar value. Where two headings read alike, the source gives them in different places.
Tests used:
GPR40 = biological target: T1, GPR40 (Homo sapiens, UniProt O14842); assay: BRET Gαq / Gαi2 activation biosensors in HEK293 cells transfected with GPR40; assay type: cell-based
T1 construct: expressed in transfected cells; host or cells: HEK293
Procedure: Figure 1 PBI-4547 binding and activity on GPR84, GPR40, GPR120, and PPAR receptors. (A) Chemical structure of PBI-4547. (B) Gi pathway activation was monitored in HEK293 cells transfected with GPR84 and the Gαi2 activation biosensor. Cells were co-treated with […] sodium decanoate and increasing concentrations of PBI-4547, and BRET variation compared with vehicle was measured. (C) β-arrestin 2 recruitment to activated GPR120 receptor was monitored in HEK293 cells transfected with RLuc8-β-arrestin 2 and GPR120-GFP10. (D) Cells transfected with GPR40 and Gαq or Gαi2 activation biosensor were exposed to increasing concentrations of PBI-4547 or to 500 µM of sodium decanoate, and BRET variation compared with vehicle was measured. Cells were exposed to increasing concentrations of PBI-4547 or to 100 µM of GW9508, and BRET variation compared with vehicle was measured. […] Data in (B–D) are expressed as means ± SEM of 4–5 experiments; data in (E,F) are from a representative experiment from a total of 3 to 4 independent experiments. […]
BRET measurements in transiently transfected HEK293 cells were performed as previously described. Ligands were incubated with cells at room temperature for 10 min (G protein biosensors) or 25 min (β-arrestin/GPR120) before collecting BRET[2] readings between Rluc8 and GFP10.

HFD-fed Gpr84−/− mice = assay: High-fat diet (HFD) mouse model, Gpr84−/− mice; assay type: in vivo
Procedure: Based on PBI-4547’s pharmacological profile and binding activities, we next used Gpr84^−/− mice fed a HFD to investigate the role of GPR84 in mediating the protective effects of PBI-4547 on glucose and FA metabolism.
WT or Gpr84^−/− mice, as previously described, (aged 10–14 weeks at the beginning of the experiment) were either fed a standard diet (STD) or a high-fat diet (HFD) (Envigo #TD.06414) for 14 weeks. At this point, mice were administered either vehicle (water) or PBI-4547 (10 mg/kg) on a daily basis for 6 (WT study) or 8 (WT vs KO study) weeks by gastric gavage, and were sacrificed thereafter. Liver and WAT tissues were fixed in 10% formalin for histological analyses or flash frozen in liquid nitrogen for RT-PCR analyses. All animal studies were reviewed and approved by the animal care and use committee of the Institut National de la Recherche Scientifique – Armand-Frappier (Laval, QC, Canada) and the University of Ottawa’s Animal Care and Veterinary Services (Ottawa, ON, Canada). Protocols were approved and undertaken according to the Canadian Council on Animal Care guidelines.
Oral glucose tolerance tests (OGTT) were completed 6 weeks after beginning of the treatments. Briefly, mice were fasted for 4–6 h, given a bolus of glucose at […] BW orally, and blood glucose values measured at 0, 15, 30, 60, 120 min. In parallel, a blood sample was obtained at 0, 15, 60 and 120 min for insulin quantification by ELISA (EMD Millipore).
After fixation in formalin, iWAT (inguinal), eWAT (epididymal) and liver sections were embedded in paraffin. Thin section of […] were stained with Hematoxylin and Eosin or Sirius red for analyses. WAT collagen deposition and liver characteristics of NAFLD were quantified histologically by a pathologist (R.C.) in a double-blinded manner. Liver histology was performed on H&E stained slides. WAT collagen deposition was scored using Picro Sirius-Red stained slides. Immunofluorescence-detection of α-SMA in liver sections was performed. Briefly, samples were deparaffinized in a series of xylenes, rehydrated in graded alcohols followed by an antigen-unmasking step by microwaving in Tris-buffer (pH 8.2). Sections were blocked with 10% donkey serum (Vector labs), 1% bovine serum albumin (Sigma) in PBS + 1%Tween for 1 h at room temperature. Slides were incubated overnight at 4 °C with an anti-mouse smooth muscle α-Actin antibody (1:300; Santa Cruz, clone #1A4). Secondary detection was performed using a donkey anti-mouse Alexa Fluor 594 (1:500; Molecular Probes), incubated for 1 h at room temperature. Slides were dehydrated and mounted with fluorescent antifade media containing DAPI (Vector labs). Images were taken at 100X and 200X magnification and representative images are shown.
RNA was extracted and purified as previously described. Real-time quantitative PCR was performed on a CFX96 Touch Real-Time PCR Detection System (Bio-Rad) using TaqMan gene expression assays (Fisher Scientific). qPCR data were analyzed using the 2-^ΔΔCt method, using Gapdh and Hprt as endogenous control. RT-qPCR data were reported as Geometric means ± SEM.

[1] = WT vs KO study, HFD-fed Gpr84−/−

T1 sequence (O14842 whole entry, species assumed): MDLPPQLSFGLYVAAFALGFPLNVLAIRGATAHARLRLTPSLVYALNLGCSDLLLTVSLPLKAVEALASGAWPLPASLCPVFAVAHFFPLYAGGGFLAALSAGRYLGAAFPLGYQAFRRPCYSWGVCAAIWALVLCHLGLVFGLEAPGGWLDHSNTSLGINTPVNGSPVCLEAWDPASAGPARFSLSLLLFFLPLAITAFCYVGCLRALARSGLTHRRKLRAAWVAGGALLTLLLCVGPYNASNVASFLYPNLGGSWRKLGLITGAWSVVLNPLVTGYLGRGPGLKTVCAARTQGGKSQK

pEC50 (GPR40; Gαi2 biosensor, read-out: EC50, GPR40 Gαi2 biosensor BRET signal decrease): 4.57
pEC50 (GPR40; Gαq biosensor, read-out: EC50, GPR40 Gαq biosensor BRET signal decrease): 4.52
Compound: CCCCCc1cc(CCCCC)cc(CC(=O)[O-])c1.[Na+] [PBI-4547, 2-[3,5-dipentylphenyl]acetate sodium salt]
immunodetectable α-SMA in liver (HFD-fed Gpr84−/− mice; HFD-fed GPR84−/− mice): further decreased
impact on hepatic steatosis (HFD-fed Gpr84−/− mice; HFD-fed Gpr84−/− (KO) mice): protective effect was lost
expression of hepatic genes previously found regulated by PBI-4547 in WT mice (HFD-fed Gpr84−/− mice; HFD-fed Gpr84−/− mice, qRT-PCR): no longer modulated
WAT mean adipocyte diameters and area (HFD-fed Gpr84−/− mice; [1]): remained unchanged
fasting blood glucose levels (HFD-fed Gpr84−/− mice; [1]): only in WT mice
serum adiponectin (HFD-fed Gpr84−/− mice; [1]): upregulated
serum cholesterol levels (HFD-fed Gpr84−/− mice; [1]): remained unchanged
serum triglyceride levels (HFD-fed Gpr84−/− mice; [1]): only in WT mice
OGTT (HFD-fed Gpr84−/− mice; WT vs KO study, HFD-fed Gpr84−/−, after 6 weeks): only had a significant effect on OGTT in WT mice
modulatory effect on pro-inflammatory and pro-fibrotic markers in WAT (HFD-fed Gpr84−/− mice; mice lacking the GPR84 receptor): absent
